Converted amounts (≈) assume the structure as drawn. The source made the active and inactive calls. The rule behind the calls is not given here.
How the values were obtained:
[1] = Tmax in NOD SCID mouse at 50 mg/kg, po; format: ADME, organism-based; details: in vivo
[2] = target: Eukaryotic elongation factor 2 kinase (Homo sapiens) (UniProt O00418); experiment: Inhibition of EEF2K (unknown origin) at 10 uM in presence of ATP at Km concentration
[3] = Stability in human hepatocytes assessed as intrinsic clearance measured per 10^6 cells; format: ADME, cell-based, Hepatocyte; details: read-out: CLH
[4] = Cmax in NOD SCID mouse at 50 mg/kg, po; format: ADME, organism-based; details: in vivo
[5] = Oral bioavailability in NOD SCID mouse at 100 mg/kg; format: ADME, organism-based; details: in vivo
[6] = target: Inactive tyrosine-protein kinase PEAK1 (Homo sapiens) (UniProt Q9H792); experiment: Inhibition of PEAK1 (unknown origin) at 10 uM in presence of ATP at Km concentration
[7] = Stability in mouse hepatocytes assessed as intrinsic clearance measured per 10^6 cells; format: ADME, cell-based, Hepatocyte; details: read-out: CLH
[8] = Toxicity in athymic nude mouse xenografted with human 786-0 cells assessed as discernible signs at 100 mg/kg, po administered twice daily via gavage for 28 days; format: organism-based; details: in vivo, 672 h, time 28 day
[9] = target: Hepatocyte growth factor receptor (Homo sapiens) (UniProt P08581); experiment: Inhibition of MET (unknown origin) at 10 uM in presence of ATP at Km concentration
[10] = target: Ephrin type-B receptor 4 (Homo sapiens) (UniProt P54760); experiment: Inhibition of EPHB4 (unknown origin) at 10 uM in presence of ATP at Km concentration
[11] = system: A498; experiment: Inhibition of CXCL8 secretion in human A498 cells at 1 to 2.5 uM incubated for 48 hrs by ELISA; format: functional, cell-based; details: dose 1-2.5 µM
[12] = target: Mitogen-activated protein kinase kinase kinase 3 (Homo sapiens) (UniProt Q99759); experiment: Inhibition of MAP3K3 (unknown origin) at 10 uM in presence of ATP at Km concentration
Mitogen-activated protein kinase kinase kinase 3 (Homo sapiens), sequence (Q99759 whole entry): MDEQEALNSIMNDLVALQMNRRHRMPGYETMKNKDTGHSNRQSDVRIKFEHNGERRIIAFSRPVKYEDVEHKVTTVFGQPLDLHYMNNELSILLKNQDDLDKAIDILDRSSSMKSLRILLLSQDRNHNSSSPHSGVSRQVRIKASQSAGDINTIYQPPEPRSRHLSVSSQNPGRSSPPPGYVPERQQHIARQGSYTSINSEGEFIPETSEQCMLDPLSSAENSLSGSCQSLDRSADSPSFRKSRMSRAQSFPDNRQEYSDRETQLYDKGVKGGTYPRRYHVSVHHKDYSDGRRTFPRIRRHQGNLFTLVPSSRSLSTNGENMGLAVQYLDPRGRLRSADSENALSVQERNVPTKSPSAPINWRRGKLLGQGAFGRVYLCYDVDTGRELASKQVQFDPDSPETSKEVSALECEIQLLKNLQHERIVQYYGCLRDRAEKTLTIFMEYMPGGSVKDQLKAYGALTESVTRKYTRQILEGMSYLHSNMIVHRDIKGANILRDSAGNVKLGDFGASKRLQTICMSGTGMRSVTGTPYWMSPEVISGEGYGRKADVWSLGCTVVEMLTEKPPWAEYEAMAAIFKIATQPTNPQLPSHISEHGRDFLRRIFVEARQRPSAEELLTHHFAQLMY

[13] = target: Tyrosine-protein kinase Yes (Homo sapiens) (UniProt P07947); experiment: Inhibition of YES1 (unknown origin) at 10 uM in presence of ATP at Km concentration
Tyrosine-protein kinase Yes (Homo sapiens), sequence (P07947 2-543 limits assumed): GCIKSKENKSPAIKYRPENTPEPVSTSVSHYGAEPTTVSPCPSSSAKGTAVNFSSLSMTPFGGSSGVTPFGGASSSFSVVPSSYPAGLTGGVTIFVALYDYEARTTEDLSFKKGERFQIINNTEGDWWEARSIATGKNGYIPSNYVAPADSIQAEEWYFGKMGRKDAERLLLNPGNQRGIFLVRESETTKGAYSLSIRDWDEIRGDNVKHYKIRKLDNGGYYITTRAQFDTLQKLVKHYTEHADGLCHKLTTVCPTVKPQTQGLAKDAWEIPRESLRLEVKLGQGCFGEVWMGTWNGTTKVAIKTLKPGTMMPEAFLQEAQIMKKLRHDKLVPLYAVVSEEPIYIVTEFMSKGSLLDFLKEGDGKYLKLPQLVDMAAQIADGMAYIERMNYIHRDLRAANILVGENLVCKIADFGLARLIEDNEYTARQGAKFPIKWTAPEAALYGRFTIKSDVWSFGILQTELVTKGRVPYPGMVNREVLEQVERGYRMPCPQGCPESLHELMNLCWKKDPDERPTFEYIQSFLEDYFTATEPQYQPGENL

[14] = system: A498; experiment: Downregulation of CXCL8 mRNA expression in human A498 cells at 1 to 2.5 uM incubated for 48 hrs by qPCR analysis; format: functional, cell-based; details: dose 1-2.5 µM
[15] = system: A498; experiment: Antimetastatic activity against human A498 cells labeled with vybrant DiD cell-labeling solution xenografted in zebrafish embryo at 1 uM incubated for 72 hrs by fluorescence microscopic imaging analysis; format: functional, cell-based
[16] = AUC (0 to infinity) in NOD SCID mouse at 50 mg/kg, po; format: ADME, organism-based; details: in vivo
[17] = target: Focal adhesion kinase 1 (Homo sapiens) (UniProt Q05397); experiment: Inhibition of PTK2 (unknown origin) at 10 uM in presence of ATP at Km concentration
[18] = system: RCC4; experiment: Antiproliferative activity against human RCC4 cells incubated for 48 hrs by XTT assay; format: functional, cell-based; details: RCC4, 48 h
[19] = target: Phosphatidylinositol 4-phosphate 5-kinase type-1 gamma (Homo sapiens) (UniProt O60331); experiment: Inhibition of PIP5K1C (unknown origin) at 10 uM in presence of ATP at Km concentration
Phosphatidylinositol 4-phosphate 5-kinase type-1 gamma (Homo sapiens), sequence (O60331 whole entry): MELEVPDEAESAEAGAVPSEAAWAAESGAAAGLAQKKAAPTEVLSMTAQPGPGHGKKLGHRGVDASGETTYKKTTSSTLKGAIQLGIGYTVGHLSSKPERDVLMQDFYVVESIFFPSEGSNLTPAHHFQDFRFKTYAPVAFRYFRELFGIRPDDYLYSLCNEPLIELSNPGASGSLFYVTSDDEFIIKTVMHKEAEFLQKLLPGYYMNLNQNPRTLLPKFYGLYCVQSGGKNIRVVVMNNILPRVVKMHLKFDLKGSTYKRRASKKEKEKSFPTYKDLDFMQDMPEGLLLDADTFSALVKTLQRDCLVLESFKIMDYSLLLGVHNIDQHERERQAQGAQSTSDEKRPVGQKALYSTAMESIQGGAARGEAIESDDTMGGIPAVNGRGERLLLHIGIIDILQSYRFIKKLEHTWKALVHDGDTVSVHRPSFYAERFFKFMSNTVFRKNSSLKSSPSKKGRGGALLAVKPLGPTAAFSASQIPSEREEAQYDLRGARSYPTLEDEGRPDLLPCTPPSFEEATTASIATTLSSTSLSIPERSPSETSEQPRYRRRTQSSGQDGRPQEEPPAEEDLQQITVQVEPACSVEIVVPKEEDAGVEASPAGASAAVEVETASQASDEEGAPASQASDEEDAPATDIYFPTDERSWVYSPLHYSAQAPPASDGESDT

[20] = system: TIME; experiment: Inhibition of CXCL8-dependent cell migration in human TIME cells at 0.5 uM incubated for 24 hrs by crystal violet staining based analysis; format: functional
[21] = Stability in mouse microsomes assessed as half-life; format: ADME, Microsome
[22] = target: Ephrin type-A receptor 5 (Homo sapiens) (UniProt P54756); experiment: Inhibition of EPHA5 (unknown origin) at 10 uM in presence of ATP at Km concentration
[23] = target: Serine/threonine-protein kinase SIK3 (Homo sapiens) (UniProt Q9Y2K2); experiment: Inhibition of SIK3 (unknown origin) at 10 uM in presence of ATP at Km concentration
[24] = target: Ephrin type-A receptor 2 (Homo sapiens) (UniProt P29317); experiment: Inhibition of EPHA2 (unknown origin) at 10 uM in presence of ATP at Km concentration
Ephrin type-A receptor 2 (Homo sapiens), sequence (P29317 whole entry): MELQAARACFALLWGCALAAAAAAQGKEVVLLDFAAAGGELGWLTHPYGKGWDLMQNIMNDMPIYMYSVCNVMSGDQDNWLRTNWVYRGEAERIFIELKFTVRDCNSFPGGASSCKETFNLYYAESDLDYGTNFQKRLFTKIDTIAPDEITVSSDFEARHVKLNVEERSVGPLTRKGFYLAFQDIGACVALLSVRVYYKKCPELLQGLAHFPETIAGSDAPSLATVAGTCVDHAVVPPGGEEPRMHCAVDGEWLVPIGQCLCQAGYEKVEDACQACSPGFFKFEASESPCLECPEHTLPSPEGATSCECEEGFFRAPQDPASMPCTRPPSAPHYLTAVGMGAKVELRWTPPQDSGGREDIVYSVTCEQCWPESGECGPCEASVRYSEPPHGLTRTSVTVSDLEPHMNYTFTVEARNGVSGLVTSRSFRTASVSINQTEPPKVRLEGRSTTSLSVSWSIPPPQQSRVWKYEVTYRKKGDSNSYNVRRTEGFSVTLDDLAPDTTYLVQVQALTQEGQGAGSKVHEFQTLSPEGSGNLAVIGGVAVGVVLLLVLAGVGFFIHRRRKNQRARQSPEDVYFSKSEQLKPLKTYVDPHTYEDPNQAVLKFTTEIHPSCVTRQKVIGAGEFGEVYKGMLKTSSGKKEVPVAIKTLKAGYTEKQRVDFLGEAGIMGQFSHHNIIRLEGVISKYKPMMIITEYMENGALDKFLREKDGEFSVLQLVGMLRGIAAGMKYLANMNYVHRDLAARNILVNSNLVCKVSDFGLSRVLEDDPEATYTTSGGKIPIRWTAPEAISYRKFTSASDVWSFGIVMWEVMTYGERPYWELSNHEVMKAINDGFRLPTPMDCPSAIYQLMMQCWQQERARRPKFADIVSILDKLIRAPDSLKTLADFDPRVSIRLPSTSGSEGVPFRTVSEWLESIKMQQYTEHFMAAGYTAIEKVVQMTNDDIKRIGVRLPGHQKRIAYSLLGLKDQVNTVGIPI

[25] = Stability in human microsomes assessed as intrinsic clearance; format: ADME, Microsome
[26] = target: Tyrosine-protein kinase receptor UFO (Homo sapiens) (UniProt P30530); experiment: Inhibition of AXL (unknown origin) at 10 uM in presence of ATP at Km concentration
Tyrosine-protein kinase receptor UFO (Homo sapiens), sequence (P30530 whole entry): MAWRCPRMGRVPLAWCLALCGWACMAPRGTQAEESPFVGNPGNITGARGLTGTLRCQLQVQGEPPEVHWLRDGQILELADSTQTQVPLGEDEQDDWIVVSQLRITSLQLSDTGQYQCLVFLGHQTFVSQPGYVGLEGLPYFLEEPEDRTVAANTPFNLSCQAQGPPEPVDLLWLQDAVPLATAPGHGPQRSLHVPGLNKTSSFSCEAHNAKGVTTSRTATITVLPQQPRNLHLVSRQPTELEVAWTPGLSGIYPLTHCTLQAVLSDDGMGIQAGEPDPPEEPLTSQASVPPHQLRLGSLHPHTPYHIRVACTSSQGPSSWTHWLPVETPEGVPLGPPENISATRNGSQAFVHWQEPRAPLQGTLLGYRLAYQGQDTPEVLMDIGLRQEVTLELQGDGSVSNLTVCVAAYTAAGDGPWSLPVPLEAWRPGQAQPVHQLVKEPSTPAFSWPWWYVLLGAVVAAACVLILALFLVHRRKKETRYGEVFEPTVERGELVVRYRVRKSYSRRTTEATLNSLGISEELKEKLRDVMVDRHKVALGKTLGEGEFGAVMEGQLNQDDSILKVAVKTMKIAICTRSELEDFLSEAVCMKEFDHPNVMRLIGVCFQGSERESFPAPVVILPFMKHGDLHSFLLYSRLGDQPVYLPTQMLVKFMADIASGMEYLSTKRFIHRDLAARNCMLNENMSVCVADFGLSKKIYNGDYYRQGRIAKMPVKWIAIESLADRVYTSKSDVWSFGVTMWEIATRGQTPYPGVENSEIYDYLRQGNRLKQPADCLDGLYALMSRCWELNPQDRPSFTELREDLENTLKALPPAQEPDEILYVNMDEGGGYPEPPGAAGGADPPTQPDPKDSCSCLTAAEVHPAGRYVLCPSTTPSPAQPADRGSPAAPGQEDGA

[27] = target: Mitogen-activated protein kinase kinase kinase 20 (Homo sapiens) (UniProt Q9NYL2); experiment: Inhibition of ZAK (unknown origin) at 10 uM in presence of ATP at Km concentration
[28] = Genotoxicity in Salmonella typhimurium TA1535 upto 100 uM in presence of S9 fraction by Ames test; format: toxicity, subcellular; details: salmonella enterica subsp. enterica serovar typhimurium, s9, 100 µM
[29] = Aqueous solubility of compound in SIF at pH 7.5; format: ADME
[30] = target: Calcium/calmodulin-dependent protein kinase type II subunit beta (Homo sapiens) (UniProt Q13554); experiment: Inhibition of CAMK2B (unknown origin) at 10 uM in presence of ATP at Km concentration
[31] = target: Serine/threonine-protein kinase N2 (Homo sapiens) (UniProt Q16513); experiment: Inhibition of PKN2 (unknown origin) at 10 uM in presence of ATP at Km concentration
Serine/threonine-protein kinase N2 (Homo sapiens), sequence (Q16513 whole entry, looked up): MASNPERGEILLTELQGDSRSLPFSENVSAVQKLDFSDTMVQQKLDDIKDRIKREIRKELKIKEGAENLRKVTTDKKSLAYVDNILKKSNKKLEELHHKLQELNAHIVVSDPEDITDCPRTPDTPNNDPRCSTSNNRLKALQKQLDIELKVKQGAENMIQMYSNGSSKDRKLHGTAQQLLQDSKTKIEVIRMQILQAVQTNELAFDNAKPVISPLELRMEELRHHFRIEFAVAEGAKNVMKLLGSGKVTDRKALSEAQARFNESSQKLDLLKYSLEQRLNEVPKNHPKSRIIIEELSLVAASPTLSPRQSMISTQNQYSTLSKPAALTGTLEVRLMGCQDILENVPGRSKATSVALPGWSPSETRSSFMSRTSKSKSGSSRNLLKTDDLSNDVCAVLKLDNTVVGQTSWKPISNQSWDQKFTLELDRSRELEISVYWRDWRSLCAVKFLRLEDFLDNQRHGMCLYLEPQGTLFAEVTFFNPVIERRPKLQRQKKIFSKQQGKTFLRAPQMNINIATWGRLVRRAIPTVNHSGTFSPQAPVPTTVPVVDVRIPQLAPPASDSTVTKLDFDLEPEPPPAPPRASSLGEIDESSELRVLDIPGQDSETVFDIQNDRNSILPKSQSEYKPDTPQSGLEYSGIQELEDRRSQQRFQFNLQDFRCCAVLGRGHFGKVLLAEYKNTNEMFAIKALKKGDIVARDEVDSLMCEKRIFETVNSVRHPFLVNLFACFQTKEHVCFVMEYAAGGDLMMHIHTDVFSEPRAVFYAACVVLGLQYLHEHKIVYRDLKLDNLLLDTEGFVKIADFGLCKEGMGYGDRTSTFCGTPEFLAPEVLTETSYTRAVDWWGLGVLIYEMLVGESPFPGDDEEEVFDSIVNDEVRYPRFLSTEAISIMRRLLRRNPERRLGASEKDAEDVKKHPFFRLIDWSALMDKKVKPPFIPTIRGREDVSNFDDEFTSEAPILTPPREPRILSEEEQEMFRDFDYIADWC

[32] = Stability in mouse microsomes assessed as intrinsic clearance; format: ADME, Microsome
[33] = Stability of compound at pH 12 measured after 24 hrs; format: physicochemical; details: buffer, pH 12, 24 h
[34] = Genotoxicity in Salmonella typhimurium TA98 upto 100 uM in absence of S9 fraction by Ames test; format: toxicity; details: salmonella enterica subsp. enterica serovar typhimurium, s9, 100 µM
[35] = Half-life in NOD SCID mouse at 1 mg/kg, iv; format: ADME, organism-based; details: in vivo
[36] = target: Interleukin-8 receptors, CXCR1/CXCR2 (Homo sapiens) (UniProt P25025+P25024); experiment: Inhibition of CXCR1/2 pathway in human A498 cells assessed as reduction in ERK phosphorylation at 2.5 uM incubated for 24 to 48 hrs by immunoblot analysis; format: functional, cell-based; details: time 24-48 hrs
[37] = target: Tyrosine-protein kinase JAK1 (Homo sapiens) (UniProt P23458); experiment: Inhibition of JAK1 (unknown origin) at 10 uM in presence of ATP at Km concentration
[38] = target: G protein-coupled receptor kinase 5 (Homo sapiens) (UniProt P34947); experiment: Inhibition of GRK5 (unknown origin) at 10 uM in presence of ATP at Km concentration
[39] = system: A498; experiment: Antiproliferative activity against human A498 cells incubated for 48 hrs by XTT assay; format: functional, cell-based; details: A498, 48 h
[40] = system: 786-0; experiment: Antiproliferative activity against human 786-0 cells incubated for 48 hrs by XTT assay; format: functional, cell-based; details: 786-0, 48 h
[41] = Genotoxicity in Salmonella typhimurium TA1537 upto 100 uM in presence of S9 fraction by Ames test; format: toxicity, subcellular; details: salmonella enterica subsp. enterica serovar typhimurium, s9, 100 µM
[42] = target: Phosphatidylinositol 4-kinase beta (Homo sapiens) (UniProt Q9UBF8); experiment: Inhibition of PI4KB (unknown origin) at 10 uM in presence of ATP at Km concentration

Tmax [1]: 1.5 h
inhibition [2]: inactive
hepatocyte CLint [3]: 35.9 µL/min/1e6 cells
Cmax [4]: 2000 nM
bioavailability [5]: 33%
inhibition [6]: inactive
hepatocyte CLint [7]: 65.8 µL/min/1e6 cells
inhibition [9]: inactive
inhibition [10]: inactive
inhibition [12]: inactive
inhibition [13]: inactive
AUC(0-inf) [16]: 8390 ng·h/mL
inhibition [17]: inactive
inhibition [19]: inactive
half-life [21]: > 60 min
inhibition [22]: inactive
inhibition [23]: inactive
inhibition [24]: inactive
microsomal CLint [25]: < 116 µL/min/mg
inhibition [26]: inactive
inhibition [27]: inactive
solubility [29]: 3 µM (≈ 1.15 µg/mL)
inhibition [30]: inactive
inhibition [31]: inactive
microsomal CLint [32]: < 116 µL/min/mg
Stability [33]: Stable
half-life [35]: 24 min
inhibition [36]: Active
inhibition [37]: inactive
inhibition [38]: inactive
IC50 [40]: 2500 nM
inhibition [42]: inactive
SMILES: O=C(Nc1cc(Cl)cc(Cl)c1)Nc1nc2ccc([N+](=O)[O-])cc2s1
Activity [8]: Non-Toxic
inhibition [11]: Active
Activity [14]: Active
Activity [15]: Active
IC50 [18]: 2000 nM
inhibition [20]: Active
Activity [28]: Non-Toxic
Activity [34]: Non-Toxic
IC50 [39]: 2000 nM
Activity [41]: Non-Toxic

Source: ChEMBL document CHEMBL5532720, “A Potent Solution for Tumor Growth and Angiogenesis Suppression via an ELR+CXCL-CXCR1/2 Pathway Inhibitor” (ACS Med Chem Lett, 2024)
